These results are taken from ChEMBL document CHEMBL1143196, “Discovery of kinase inhibitors by high-throughput docking and scoring based on a transferable linear interaction energy model” (J Med Chem, 2008).

The structures appear in SMILES notation. Some results are limits rather than exact numbers.

For the first assay, the target named is Epidermal growth factor receptor (Homo sapiens, UniProt P00533).
Epidermal growth factor receptor, sequence (P00533 whole entry): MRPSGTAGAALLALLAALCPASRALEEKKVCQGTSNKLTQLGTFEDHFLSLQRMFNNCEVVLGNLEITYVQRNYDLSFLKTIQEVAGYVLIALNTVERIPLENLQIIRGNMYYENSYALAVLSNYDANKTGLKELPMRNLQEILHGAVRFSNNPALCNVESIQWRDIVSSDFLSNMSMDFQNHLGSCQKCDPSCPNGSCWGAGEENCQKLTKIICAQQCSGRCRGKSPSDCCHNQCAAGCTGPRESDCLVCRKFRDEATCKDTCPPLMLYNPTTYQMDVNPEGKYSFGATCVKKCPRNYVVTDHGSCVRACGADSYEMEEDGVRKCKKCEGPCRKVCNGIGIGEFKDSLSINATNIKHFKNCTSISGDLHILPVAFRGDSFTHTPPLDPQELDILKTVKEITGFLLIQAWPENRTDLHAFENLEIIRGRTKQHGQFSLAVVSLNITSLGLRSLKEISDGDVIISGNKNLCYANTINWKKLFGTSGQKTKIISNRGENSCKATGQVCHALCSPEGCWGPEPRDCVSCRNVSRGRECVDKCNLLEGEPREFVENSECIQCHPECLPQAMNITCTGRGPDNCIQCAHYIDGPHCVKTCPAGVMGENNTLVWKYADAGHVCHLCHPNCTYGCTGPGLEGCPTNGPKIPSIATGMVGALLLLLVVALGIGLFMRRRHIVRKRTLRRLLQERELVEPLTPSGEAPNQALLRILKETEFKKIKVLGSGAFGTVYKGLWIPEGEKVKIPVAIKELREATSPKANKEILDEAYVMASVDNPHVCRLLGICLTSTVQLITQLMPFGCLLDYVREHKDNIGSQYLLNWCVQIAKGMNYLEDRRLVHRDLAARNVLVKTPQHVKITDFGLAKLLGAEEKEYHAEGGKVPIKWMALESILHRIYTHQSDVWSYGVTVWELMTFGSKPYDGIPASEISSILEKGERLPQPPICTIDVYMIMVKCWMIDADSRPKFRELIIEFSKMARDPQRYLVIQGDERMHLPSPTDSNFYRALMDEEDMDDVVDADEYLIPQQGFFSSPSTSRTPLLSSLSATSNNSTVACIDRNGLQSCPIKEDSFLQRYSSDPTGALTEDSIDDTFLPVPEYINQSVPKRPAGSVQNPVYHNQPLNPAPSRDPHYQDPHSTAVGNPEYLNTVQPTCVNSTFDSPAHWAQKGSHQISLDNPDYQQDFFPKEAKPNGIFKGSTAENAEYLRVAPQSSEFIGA
Test: not given
Details: not given
`O=C(O)CNc1c(Br)cccc1Nc1ncnc2ccncc12` showed a half-inhibitory concentration (IC50) of 1.51 nM.
Still for that read-out and setting: the value for `CN(C)c1ccc2ncnc(Nc3cccc(Br)c3)c2n1` was 9.77 nM.
On the same count and under the same terms, to `COc1ccc2ncnc(Nc3cccc(Br)c3)c2c1` belongs 355 nM; to `O=S(=O)(O)CCNc1c(Br)cccc1Nc1ncnc2ccncc12`, 1.41 nM.
On the same count and under the same terms, to `Nc1c(O)cccc1Nc1ncnc2ccncc12` belongs 70.8 nM; to `CN1CCN(CCCNc2c(Br)cccc2Nc2ncnc3ccncc23)CC1`, 5.01 nM; to `Clc1cccc(Nc2ncnc3ccccc23)c1`, 23.4 nM.
With `CN(C)CCN(C)c1c(Br)cccc1Nc1ncnc2ccncc12`, the IC50 was 40.7 nM.
Same read-out and setting: to `OCCNc1c(Br)cccc1Nc1ncnc2ccncc12` belongs 0.245 nM.
Still for that read-out and setting: the value for `Oc1ccc2c(Nc3cccc(Br)c3)ncnc2c1` was 4.79 nM; that for `CN(C)c1ccc2c(Nc3cccc(Br)c3)ncnc2n1` was 331 nM; that for `CNc1ncc2ncnc(Nc3cccc(Br)c3)c2n1` was 0.776 nM.
Molecule `COc1cc2c(Nc3cccc(Br)c3)ncnc2cn1` gave an IC50 of 2.63 nM.
On the same count and under the same terms, the value for `Nc1cc(Br)ccc1Nc1ncnc2ccncc12` was 25.7 nM.
Still for that read-out and setting: to `COc1cc2ncnc(Nc3ccc(Br)cc3)c2cc1OC` belongs 0.0724 nM.
On the same count and under the same terms, to `O=C(O)CCNc1c(Br)cccc1Nc1ncnc2ccncc12` belongs 0.617 nM.
As to `O=[N+]([O-])c1ccc2ncnc(Nc3cccc(Br)c3)c2c1`, 912 nM corresponded to half-maximal inhibition (IC50). This IC50 is about 1500-fold higher than that of the molecule before.
Molecule `COc1ccc(CNc2cc3c(Nc4cccc(Br)c4)ncnc3cn2)cc1` had an IC50 of 2.34 nM.
In turn, `Nc1ccccc1Nc1ncnc2cc(Br)ncc12` had an IC50 of 245 nM.
`CNc1ccc2ncnc(Nc3cccc(Br)c3)c2n1`: inhibition was half-maximal at 3.16 nM (IC50).
Same read-out and setting: the value for `Fc1cc2c(Nc3cccc(Br)c3)ncnc2cn1` was 126 nM; that for `CC(=O)Nc1c(Br)cccc1Nc1ncnc2ccncc12` was 29.5 nM.
The molecule `Nc1c(Br)cccc1Nc1ncnc2ccncc12` showed an IC50 of 10 nM.
In turn, `Cc1cccc(Nc2ncnc3cnc(N)nc23)c1` showed an IC50 of 17.4 nM.
Still for that read-out and setting: the value for `Cc1cccc(Nc2ncnc3ccncc23)c1NCCCn1ccnc1` was 3.55 nM; that for `Ic1cccc(Nc2ncnc3ccccc23)c1` was 81.3 nM; that for `Brc1cccc(Nc2ncnc3ccccc23)c1` was 27.5 nM.
Regarding `OCN(CO)c1c(Br)cccc1Nc1ncnc2ccncc12`, the IC50 was 14.1 nM.
In the case of `Brc1cccc(Nc2ncnc3ccncc23)c1NCCCN1CCOCC1`, half-maximal inhibition (IC50) was put at 1.91 nM. This IC50 lies about 7.4-fold lower than the previous one.
The molecule `Nc1c(F)cccc1Nc1ncnc2ccncc12` gave a half-inhibitory concentration (IC50) of 851 nM. This IC50 lies about 450-fold higher than the previous one.
For the molecule `COc1ccc2ncnc(Nc3ccccc3)c2c1` [listing 1 of 2 here], the IC50 is 120 nM.
The same measure, in the same setting: to `OCCN(CCO)c1c(Br)cccc1Nc1ncnc2ccncc12` belongs 12 nM; to `Clc1ncc2ncnc(Nc3cccc(Br)c3)c2n1`, 83.2 nM; to `COc1ccc2ncnc(Nc3cccc(Br)c3)c2n1`, 4.37 nM.
The same measure, in the same setting: to `Nc1c(Cl)cccc1Nc1ncnc2ccncc12` belongs 120 nM.
For `Brc1cccc(Nc2ncnc3cccnc23)c1`, the half-maximal inhibitory concentration (IC50) was 34.7 nM.
On the same count and under the same terms, to `COc1ccc(Nc2ncnc3ccncc23)c(N)c1` belongs 676 nM; to `COc1cc2ncnc(Nc3cccc(C(F)(F)F)c3)c2cc1OC`, 0.245 nM; to `COc1cccc(Nc2ncnc3ccncc23)c1N`, 132 nM.
The same measure, in the same setting: the value for `Brc1cccc(Nc2ncnc3ccncc23)c1NCCCCN1CCOCC1` was 5.5 nM.
Still for that read-out and setting: to `CN(C)CCCCCNc1c(Br)cccc1Nc1ncnc2ccncc12` belongs 8.51 nM.
`Fc1c(Br)cccc1Nc1ncnc2ccncc12` showed an IC50 of 13.2 nM.
On the same count and under the same terms, to `CN(CC(=O)O)c1c(Br)cccc1Nc1ncnc2ccncc12` belongs 16.2 nM.
The same measure, in the same setting: to `COc1c(Br)cccc1Nc1ncnc2ccncc12` belongs 39.8 nM; to `Nc1c(Nc2ncnc3ccncc23)cccc1[N+](=O)[O-]`, 40.7 nM.
The molecule `Cc1cccc(Nc2ncnc3cnc(N(C)C)nc23)c1` showed an IC50 of 4.07 nM.
In turn, `CNc1cc2ncnc(Nc3cccc(Br)c3)c2cc1[N+](=O)[O-]` showed an IC50 of 69.2 nM.
Same read-out and setting: the value for `OCCN(CCO)CCCNc1c(Br)cccc1Nc1ncnc2ccncc12` was 1.2 nM; that for `Brc1cccc(Nc2ncnc3ccncc23)c1NCCN1CCOCC1` was 3.24 nM; that for `FC(F)(F)c1cccc(Nc2ncnc3ccccc23)c1` was 589 nM.
In turn, `Nc1cc2ncnc(Nc3ccccc3N)c2cn1` had an IC50 of 5370 nM.
As for `Brc1cccc(Nc2ncnc3ccncc23)c1`, the IC50 was 35.5 nM. Against the preceding molecule, the IC50 is about 150-fold lower.
The same measure, in the same setting: to `Brc1cccc(Nc2ncnc3ccncc23)c1NCCc1c[nH]cn1` belongs 0.912 nM; to `COc1cc2ncnc(Nc3ccccc3)c2cc1OC`, 29.5 nM.
The same measure, in the same setting: the value for `CN(C)CCCNc1c(Br)cccc1Nc1ncnc2ccncc12` was 8.91 nM.
`Cc1cccc(Nc2ncnc3ccncc23)c1NCCCCN(C)C` had an IC50 of 5.5 nM.
On the same count and under the same terms, to `CN(C)c1cc2ncnc(Nc3cccc(Br)c3)c2cc1N` belongs 162 nM; to `COc1cc2ncnc(Nc3ccccc3N)c2cn1`, 3720 nM; to `Oc1cc2ncnc(Nc3cccc(Br)c3)c2cc1O`, 0.174 nM.
The same measure, in the same setting: the value for `OCCN(CCO)CCNc1c(Br)cccc1Nc1ncnc2ccncc12` was 9.33 nM.
For the molecule `CN(C)c1ccc2ncnc(Nc3cccc(Br)c3)c2c1`, the IC50 was 85.1 nM.
The molecule `CN(C)c1cccc(Nc2ncnc3ccncc23)c1N` gave an IC50 of 1820 nM.
Regarding `OCC(O)CNc1c(Br)cccc1Nc1ncnc2ccncc12` (configuration not stated), it took 0.933 nM to reach half-maximal inhibition (IC50). Against the preceding molecule, the IC50 is about 2000-fold lower.
As for `Nc1cc(C(F)(F)F)ccc1Nc1ncnc2ccncc12`, the half-inhibitory concentration (IC50) was 4790 nM.
Still for that read-out and setting: the value for `O=[N+]([O-])c1ccc2c(Nc3cccc(I)c3)ncnc2c1` was 550 nM; that for `CNc1ncc2ncnc(Nc3ccccc3)c2n1` was 13.2 nM.
`CCCOc1cc2ncnc(Nc3cccc(Br)c3)c2cc1OCCC`: the IC50 was 0.174 nM.
Same read-out and setting: the value for `CN(CCO)c1c(Br)cccc1Nc1ncnc2ccncc12` was 2.63 nM; that for `NNc1c(Br)cccc1Nc1ncnc2ccncc12` was 7.24 nM; that for `Cc1cccc(Nc2ncnc3cnc(NCCN4CCOCC4)nc23)c1` was 2.34 nM.
Still for that read-out and setting: to `COc1ccc2ncnc(Nc3ccccc3)c2c1` [listing 2 of 2 here] belongs 56.2 nM.
On to `Brc1cccc(Nc2ncnc3ccncc23)c1NCCCn1ccnc1`, for which the IC50 was 0.513 nM.
Same read-out and setting: the value for `CN(CC(O)CO)c1c(Br)cccc1Nc1ncnc2ccncc12` (configuration not stated) was 3.24 nM.
With `Nc1ccc2ncnc(Nc3cccc(Br)c3)c2n1`, the IC50 was 7.76 nM.
The same measure, in the same setting: the value for `CN(C)CCNc1c(Br)cccc1Nc1ncnc2ccncc12` was 45.7 nM.
For the molecule `Clc1cc2c(Nc3cccc(Br)c3)ncnc2cn1`, it took 40.7 nM to reach half-maximal inhibition (IC50). The IC50 values of the last two molecules are within 1.5-fold of each other.
As to `Cc1cccc(Nc2ncnc3ccncc23)c1NCCCN1CCN(C)CC1`, the IC50 was 5.62 nM. This IC50 lies about 7.2-fold lower than the previous one.
Regarding `CN(C)c1ccc(Nc2ncnc3ccncc23)c(N)c1`, the concentration for half-maximal inhibition (IC50) is 4900 nM.
Molecule `CN(C)CCCCNc1c(Br)cccc1Nc1ncnc2ccncc12` showed an IC50 of 7.41 nM. Against the preceding molecule, the IC50 is about 660-fold lower.
The same measure, in the same setting: the value for `CNc1ccc2ncnc(Nc3cccc(Br)c3)c2c1` was 4.07 nM.
Turning to `Nc1cc2c(Nc3cccc(Br)c3)ncnc2cc1Cl`, the IC50 was 6.61 nM. This IC50 is about 1.6-fold higher than that of the molecule before.
Still for that read-out and setting: to `Brc1cccc(Nc2ncnc3cnc(NCCn4ccnc4)nc23)c1` belongs 2.34 nM; to `CN(C)c1ccc2c(Nc3cccc(Br)c3)ncnc2c1`, 11.2 nM; to `CC(=O)Nc1ccc2c(Nc3cccc(Br)c3)ncnc2c1`, 40.7 nM.
`Nc1ccccc1Nc1ncnc2ccncc12` showed an IC50 of 251 nM.
`Fc1ccc2ncnc(Nc3cccc(Br)c3)c2n1` showed an IC50 of 44.7 nM.
The same measure, in the same setting: to `O=C(O)CCCNc1c(Br)cccc1Nc1ncnc2ccncc12` belongs 0.282 nM.

Tested on in the next assay: not listed separately
Nature of the assay: cells. The note with it: T-cell.
For the molecule `COc1cc2nc(Nc3c(C)cccc3C)c3cncn3c2cc1OC`, the IC50 amounted to 1100 nM.
`Cc1cccc(Cl)c1Nc1nc2cc3c(cc2n2cncc12)OCCO3` gave an IC50 of 2200 nM.
The same measure, in the same setting: the value for `Cc1cccc(Cl)c1Nc1nc2cc(N3CC(C)NC(C)C3)ccc2n2cncc12` (configuration not stated) was 570 nM; that for `Cc1cccc(Cl)c1Nc1nc2ccc(N)cc2n2cncc12` was 1600 nM.
For the molecule `Cc1cccc(Cl)c1Nc1nc2cc(N3CCOCC3)ccc2n2cncc12`, half-maximal inhibition (IC50) was put at 1000 nM.
For the molecule `CCNc1ccc2nc(Nc3c(C)cccc3Cl)c3cncn3c2c1`, the midpoint of inhibition, the IC50, lay at 2200 nM.
On the same count and under the same terms, to `COc1cc2c(cc1NCCN1CCOCC1)nc(Nc1c(C)cccc1Cl)c1cncn12` belongs 280 nM; to `COc1cc2c(cc1NCCN(C)C)nc(Nc1c(C)cccc1Cl)c1cncn12`, 190 nM; to `Cc1cccc(Cl)c1Nc1nc2ccc(N3CC(C)NC(C)C3)cc2n2cncc12` (configuration not stated), 340 nM.
As to `Cc1cccc(Cl)c1Nc1nc2ccc(N3CCN(C)CC3)cc2n2cncc12`, half-maximal inhibition (IC50) required 240 nM.
`Cc1cccc(Cl)c1Nc1nc2ccc(N3CCOCC3)cc2n2cncc12` displayed an IC50 of 780 nM.
Molecule `COc1cc2c(cc1NCCN(C)C)nc(Nc1c(F)cccc1Cl)c1cncn12` yielded an IC50 of 240 nM.
The same measure, in the same setting: to `COc1cc2c(cc1OCCN1CCOCC1)nc(Nc1c(C)cccc1Cl)c1cncn12` belongs 470 nM.
Still for that read-out and setting: the value for `Cc1cccc(Cl)c1Nc1nc2cc(NCCN(C)C)ccc2n2cncc12` was 520 nM; that for `COc1cc2nc(Nc3c(C)cccc3Cl)c3cncn3c2cc1N1CC(C)NC(C)C1` (configuration not stated) was 760 nM.
Turning to `COc1cc2nc(Nc3c(C)cccc3Cl)c3cncn3c2cc1OC`, the IC50 is 670 nM. This IC50 and that of the molecule before are within 1.5-fold of each other.
Still for that read-out and setting: to `COc1ccc2c(c1)nc(Nc1c(C)cccc1Cl)c1cncn12` belongs 2600 nM; to `CCN(CC)c1ccc2nc(Nc3c(C)cccc3Cl)c3cncn3c2c1`, 2600 nM; to `Cc1cccc(Cl)c1Nc1nc2ccc(N(C)C)cc2n2cncc12`, 2000 nM.
`Cc1cccc(Cl)c1Nc1nc2cc(NCCCN(C)C)ccc2n2cncc12` returned an IC50 of 480 nM.
Same read-out and setting: the value for `Cc1cccc(Cl)c1Nc1nc2cc(O)c(O)cc2n2cncc12` was above 9000 nM; that for `Cc1cccc(Cl)c1Nc1nc2cc(N3CCNCC3)ccc2n2cncc12` was 1000 nM.
Take `CCN1CCN(c2ccc3nc(Nc4c(C)cccc4Cl)c4cncn4c3c2)CC1`: the IC50 was 270 nM.
As for `Cc1cccc(Cl)c1Nc1nc2cc(N3CCN(C)CC3)ccc2n2cncc12`, the IC50 is 720 nM.
The same measure, in the same setting: to `Cc1cccc(Cl)c1Nc1nc2ccc(N3CCCN(C)CC3)cc2n2cncc12` belongs 540 nM.
